Consider four compounds from publication PMC11984905, “Chiral Switch of Gadopiclenol: New Standards in MRI Probes” (Advanced Science, 2025).

A short description of series [1]: Stability and protonation constants of Ca(II)-complexes (pH-potentiometry). In kind it is physicochemical. The following applies: 0.15 M NaCl, 25 °C. On the procedure:
(§1) The protonation constants of ligands, the stability and protonation constants of Ca(II)‐ and Zn(II)‐complexes formed with rac‐L1, ent‐L1, rac‐L2, and ent‐L2 ligands were determined by pH‐potentiometric titration. The metal‐to‐ligand concentration ratio was 1:1 (the concentration of the ligand was generally 0.002 M). The protonation constants of the Cu(II)‐ and Gd(III)‐complexes were determined using pH‐potentiometry by titrating the pre‐prepared complexes from pH 2.0 to 12.0 with 0.2 M NaOH. The stability constants of the Gd(III)‐complexes with rac‐L1 and ent‐L1 ligands were determined by the “out‐of‐cell” technique because of their slow formation reaction. The pH range of the complexation equilibria and the time needed to reach the equilibria were determined by relaxometry. Eight–eight Gd(III) – rac‐L1 and Gd(III) – ent‐L1 samples were prepared, with pH values in the range of 1.7–3.0 at equilibrium ([Gd^3+] = [L] = 0.002 M). The samples were kept at 25 °C for 6 weeks to reach equilibrium. For the calculation of the stability constants of the [Gd(rac‐L1)]^3− and [Gd(ent‐L1)]^3− complexes, besides the protonation constants of ligands and the Gd(III) complexes, the stability constants of the di‐protonated [^*Gd(H2 rac‐L1)]^− and [^*Gd(H2 […])]^− out‐of‐cage complexes (considered as intermediates) was also used as fixed values, which were calculated from the pH‐potentiometric titration curve of the Gd(III) – rac‐L1 and Gd(III) – ent‐L1 system obtained in the pH range of 1.7–7.0.
(§2) For the pH measurements and titrations, the Metrohm 888 Titrando titration workstation Metrohm‐6.0234.110 combined electrode was used. Equilibrium measurements were carried out at a constant ionic strength (0.15 M NaCl) in 6 mL samples at 25 °C. The solutions were stirred, and N2 was bubbled through them. The titrations were made in the pH range 1.7–12.0. KH‐Phthalate (pH 4.005) and borax (pH 9.177) buffers were used to calibrate the pH meter. For the calculation of [H^+] from the measured pH values, the method proposed by Irving et al. was used as follows.^[ [46] ^] A 0.01M HCl solution was titrated with standardized NaOH solution at 0.15 M NaCl ionic strength. The differences (A) between the measured (pHread) and calculated pH (‐log[H^+]) values were used to obtain the equilibrium H^+ concentration from the pH values measured in the titration experiments (A = 0.02). For the equilibrium calculations, the stoichiometric water ionic product (pK w) was also needed in order to calculate [OH^−] values under basic conditions. The VNaOH – pHread data pairs of the HCl – NaOH titration obtained in the pH range 10.5–12.0 were used to calculate the pK w value (pK w = 13.83).
(§3) The stability and protonation constants of Ca(II)-, Zn(II)-, Cu(II)- and Gd(III)-complexes of rac-L1, ent-L1, rac-L2 and ent-L2, defined by Equations (S2) and (S3), were investigated by pH-potentiometry, spectrophotometry and ^1H NMR relaxometry at 25 °C in 0.15 M NaCl solution.
(§4) where i=0, 1, 2,…5. The KML and KMHiL values characterizing the formation of Ca(II)-, Zn(II)-, Cu(II)- and Gd(III)-complexes with rac-L1, ent-L1, rac-L2 and ent-L2 ligands have been calculated from the pH-potentiometric titration data obtained at 1:1 metal to ligand concentration ratios. In calculating the equilibrium constants, the best fitting of the mL NaOH – pH data has been obtained by assuming the formation of ML, MHL, MH2L, MH3L, MH4L, MH5L and MLH-1 species. The formation of the deprotonated [GdLH-1]^- complexes with rac-L2 and ent-L2 ligands takes place at pH>9.0, as indicated by the base consumption in the titration curves. This deprotonation of the Gd(III)-complexes occurs on the inner-sphere water molecule.

The nature of series [2]: Stability and protonation constants of Zn(II)-complexes (pH-potentiometry). It counts as physicochemical. The settings on record: 0.15 M NaCl, 25 °C. On the procedure: as §1, §2, §3, §4

Turning to `O=C(O)CCC(C(=O)O)N1CCN(C(CCC(=O)O)C(=O)O)Cc2cccc(n2)CN(C(CCC(=O)O)C(=O)O)CC1` (racemic) [rac‐L1, 2,2’,2’’-[3,6,9,15-tetraazabicyclo[9.3.1]pentadeca-1(15),11,13-triene-3,6,9-triyl]tripentanedioic acid], in series [1], the “logK CaL” value is listed as 10.10 (1), the logKCaH2L is on record as 5.34 (2), the logKCaH3L is 4.83 (4) and the logKCaH4L is recorded as 4.45 (2). Besides, the logKCaHL in series [1] was 5.72 (1). In addition, in series [2], the “logK ZnL” value was 19.54(2), the logKZnH2L is listed as 5.01 (2), the logKZnH3L is 3.91 (3) and the logKZnH4L is given as 3.88 (3). The logKZnHL in series [2] was 5.24 (4).

On to `O=C(CCC(C(=O)O)N1CCN(C(CCC(=O)NCC(O)CO)C(=O)O)Cc2cccc(n2)CN(C(CCC(=O)NCC(O)CO)C(=O)O)CC1)NCC(O)CO` (racemic) [rac‐L2], for which, in series [1], the “logK CaL” value is on record as 7.84 (2) and the logKCaHL was 4.86 (9). For the same compound, in series [2], the “logK ZnL” value is 18.66 (3) and the logKZnHL is given as 3.77 (3).

Regarding `O=C(O)CCC(C(=O)O)N1CCN(C(CCC(=O)O)C(=O)O)Cc2cccc(n2)CN(C(CCC(=O)O)C(=O)O)CC1` (stereo not drawn) [ent‐L1], in series [1], the “logK CaL” value is 11.03 (1), the logKCaH2L is given as 5.01 (2), the logKCaH3L is listed as 4.74 (2) and the logKCaH4L was 4.24 (3). In addition, the logKCaHL in series [1] was 5.59 (2). Besides, in series [2], the “logK ZnL” value was 20.77 (2), the logKZnH2L was 4.76 (2), the logKZnH3L was 4.18 (2) and the logKZnH4L is recorded as 3.29 (2). In series [2], the logKZnHL is 5.26 (2).

For `O=C(CCC(C(=O)O)N1CCN(C(CCC(=O)NCC(O)CO)C(=O)O)Cc2cccc(n2)CN(C(CCC(=O)NCC(O)CO)C(=O)O)CC1)NCC(O)CO` (stereo not drawn) [ent‐L2], in series [1], the “logK CaL” value is listed as 10.26 (1) and the logKCaHL is reported as 4.16 (2). Moreover, in series [2], the “logK ZnL” value is reported as 20.13 (3) and the logKZnHL is reported as 3.27 (3).
